The results in this text go back to a melting point compilation (Tetko et al.; mined from patent text by program, amines drawn as free bases though some values may be those of a salt).

`O=[N+]([O-])C(=Cc1ccc(F)cc1)c1ccc(F)cc1` came in with a melting point of 107 to 109 °C.

On to `Cc1nc(C(O)COc2ccc(CC3SC(=O)NC3=O)cc2)c(C)o1` (centres undefined), for which the melting point lay within 223 to 224 °C.

The molecule `CCCCn1c(=O)c2c(N3CCN(C)CC3)cc(Cl)cc2n(Cc2ccccc2)c1=O` registered a melting point of 121 to 123 °C.

For `CCOc1cc2cc(CO)c(CO)c(-c3ccnc(-n4nc(-c5cccnc5)c5ccccc5c4=O)c3)c2cc1OCC`, the melting point came to 222 °C.

Molecule `O=C1N(CCN2CCC(c3noc4cc(F)ccc34)CC2)CCN1c1ccccc1` displayed a melting point of 158 to 160 °C.

Molecule `CC(C)n1nc(-c2sc(NC(=O)c3ccccc3C(F)(F)F)nc2-c2ccccc2)ccc1=O` yielded a melting point of 219 to 220 °C.

`NC(=O)OCCn1nccc1-c1ccc(Oc2ccc(F)cc2)cc1` yielded a melting point of 120 to 125 °C.

Regarding `CC(=O)N(C)C(c1ccc(F)cc1)c1ccc(F)cc1`, the melting point is 99 to 100 °C.

In turn, `CCc1nc(OC)c(NC(=O)N2CCN(c3cc(F)cc(F)c3)CC2)cc1C(=O)NC(C)C(=O)Nc1cc(CO)cc(Nc2c3ccccc3nc3ccccc23)c1` (centres undefined) gave a melting point of 202 to 204 °C.

As to `CN(CCO)Cc1ccc(-c2ccc(N3C[C@H](Cn4ccnn4)OC3=O)cc2F)cn1`, the melting point amounted to 137 °C.

As to `COC(=O)CCc1cc2nc(C)ccc2n1S(=O)(=O)c1ccccc1`, the melting point is 98 to 115 °C.

`CC1CN(c2ncc(Br)cc2C=O)CC1C` (centres undefined) gave a melting point of 98.5 to 99.5 °C.

Consider `O=[N+]([O-])c1cc2nccnc2cc1Sc1cccc2cnccc12`, for which the melting point lay in the range of 222 to 225 °C.

`COC(=O)c1cc(O)cc(OC)c1` returned a melting point of 85 to 86 °C.

The molecule `Cn1c(C(F)(F)F)cc(=O)n(-c2ccc(OCc3ccc(Cl)cc3)cc2)c1=O` came in with a melting point of 167 to 169 °C.

On to `CC1(C)SC(=O)C2OC=C(Br)C=C21` (centres undefined), for which the melting point is 63 to 72 °C.

`N=C(NS(=O)(=O)C=Cc1ccc([N+](=O)[O-])cc1)c1ccc2ccccc2c1` returned a melting point of 180 to 182 °C.

Molecule `CC(ON1C(C)(C)CC2(CC1(C)C)OCC(C)(C)CO2)c1ccc(O)cc1` (centres undefined) showed a melting point of 133 to 134 °C.

Take `CCn1cc(C(=O)O)c(=O)c2cc(F)c(N3CCC(N(C)C)CC3)c(F)c21`: the melting point is 210 to 211 °C.

As to `CC(C)c1nc(COCc2ccccc2)n(Cc2cnc3ccccc3c2)c1Sc1cc(Cl)cc(Cl)c1`, the melting point was 95 to 98 °C.

In turn, `CCCCNC(=O)COc1ccn2nc(-c3ccccc3)c(-c3ccc(=O)n(C(C)C)n3)c2c1` showed a melting point of 151 to 152 °C.

As for `Cc1cc(C)nc(NC(=O)NS(=O)(=O)c2cccc3c2OC(C)(C)C3)n1`, the melting point was 203 to 206 °C.

Molecule `COC(=O)/C=C/c1cc(Br)cs1` returned a melting point of 63 to 67 °C.

Take `CNC(=O)CC1CN=C(c2cc3cc(Oc4ccc(S(C)(=O)=O)nc4)cc(OC(COC)COC)c3[nH]2)S1` (centres undefined): the melting point fell in the range of 149 to 151 °C.

Consider `CCOC(=O)C(=O)c1ccc(C)[nH]1`, for which the melting point lay within 72 to 74 °C.

With `c1cc(-c2ccoc2)cc(-n2cnc3cc(-c4ccoc4)ccc32)c1`, the melting point was in the range of 149 to 150 °C.

Molecule `C[C@H](NC(=O)[C@@H](C)NC(=O)[C@@H](N)CC(=O)O)C1CCCC1` returned a melting point of 204 to 205 °C.

`CC(C(=O)O)c1ccc2ocnc2c1` (centres undefined) came in with a melting point of 126 to 128 °C.

Turning to `CC(C)(COC(=O)OOC(=O)OCC(C)(C)c1ccccc1)c1ccccc1`, the melting point is 59 to 60 °C.

`Cc1ccc(C(=O)NC(NC(=S)Nc2ccccc2C)C(F)(F)F)cc1` (centres undefined) came in with a melting point of 210 to 211 °C.

`Cc1ccc(-c2ccc(S(C)(=O)=O)cc2)n1-c1ccc(Br)cc1` came in with a melting point of 200 to 202 °C.

As to `C[C@@H](SCCc1nccn1C)[C@](O)(Cn1cncn1)c1ccc(F)cc1F` (racemic), the melting point was 175 to 176 °C.

In the case of `CC(=O)Oc1ccc([C@@H]2SC(C)(C)[C@H](C(=O)O)N2C(C)=O)cc1`, the melting point fell in the range of 199 to 201 °C.

For `CC(=O)SC/C(=C/c1ccccc1)C(=O)O`, the melting point came out at 57 °C.

For `COc1cccc(NC(=O)CN2C(=O)c3ccccc3C2=O)c1`, the melting point stood at 171 °C.

`O=[N+]([O-])c1ccc(C2=NCCCN2)cc1` came in with a melting point of 168 to 172 °C.

In the case of `CON(c1ccc([N+](=O)[O-])cc1Cl)S(=O)(=O)c1cc(Cl)ccc1Cl`, the melting point lay within 132 to 133 °C.

Consider `CC1(C)CC(OC(=O)c2ccccc2)CC(C)(C)N1N=Nc1ccccc1`, for which the melting point lay within 89 to 91 °C.

For the molecule `COC(=O)c1ccccc1Sc1cccc(O)c1`, the melting point was in the range of 77 to 78.5 °C.

`OC1(c2ccccc2)CCN(CCc2c[nH]c3ccccc23)CC1` came in with a melting point of 133 to 137 °C.

Consider `Cc1cccc2c(/C=C/C(=O)O)cc(C(C)C)c(O)c12`, for which the melting point lay in the range of 122 to 123 °C.

For the molecule `CCCCOCCOc1ccc(-c2ccc(N3CC=CC3)c(C=O)c2)cc1`, the melting point lay within 79 to 81 °C.

On to `FC(F)(c1ccccc1)C(F)(F)c1ccccc1CBr`, for which the melting point fell in the range of 70 to 77 °C.

The molecule `CC(=O)NC[C@H]1CN(c2cc(F)c(N3CCC(Cc4noc(C)n4)CC3)c(F)c2)C(=O)O1` showed a melting point of 134 to 136 °C.

For the molecule `COc1c(Br)cc2c3c(cccc13)C(=O)N(O)C2=O`, the melting point fell in the range of 223 to 227 °C.

In turn, `Nc1nc(-c2cccc(C(F)(F)F)c2)nc2nc(-c3ccco3)nn12` came in with a melting point of 296 to 298 °C.

`C[C@@H]1C[C@H](C)CN(S(=O)(=O)c2ccc(Cl)c(C(=O)NCCCC(=O)O)c2)C1` showed a melting point of 193 to 195 °C.

`CCCCc1nc(Cl)c(C(=O)O)n1Cc1ccc2oc(-c3ccccc3C(=O)O)c(Br)c2c1`: the melting point fell in the range of 148 to 152 °C.

As to `COc1ccc2c(c1)C=C(C(=O)N1CCN(C(=O)c3cc(OC)c(OC)c(OC)c3)CC1)CCO2`, the melting point lay within 110 to 115 °C.

Molecule `CSc1sc(C(N)=O)c2c1-c1sc(-c3ccccc3)cc1CC2` yielded a melting point of 192 to 193 °C.

Turning to `O=C(/C=C/c1ccn(S(=O)(=O)c2ccc(-n3cccn3)cc2)c1)NO`, the melting point lay in the range of 161 to 167 °C.

Consider `C=C(C)COc1ccc(CC(=O)OC)cc1[N+](=O)[O-]`, for which the melting point lay in the range of 30 to 31.5 °C.

The molecule `COc1ccc(C(=O)c2nnc(-c3ccccc3)o2)cc1` displayed a melting point of 152 °C.

With `CN(CCN(C)[C@H]1CC[C@H](c2ccc3[nH]c(=O)oc3c2)CC1)c1ccccc1`, the melting point lay in the range of 240 to 243 °C.

For the molecule `NC(=S)c1cccc2c1CCCC2=O`, the melting point is 200 to 205 °C.

Take `O=S1(=O)Cc2ccc(Cl)cc2C(c2ccc(F)cc2)=NN1`: the melting point lay in the range of 195 to 198 °C.

In turn, `Cc1c2c(c(C)c3c1OC(C)(CI)C3)N(C=O)C(C)(C)C2` (centres undefined) showed a melting point of 124 to 126 °C.

For the molecule `Cn1nc(Cl)c(C(=O)Cc2ccccc2)c1Cl`, the melting point was 94 to 96 °C.

Consider `COc1cc(-c2cc(=O)c3c(OC)cc(OC)c(C4=CCN(C)CC4)c3o2)cc(OC)c1OC`, for which the melting point lay in the range of 211 to 212 °C.

`C=CCC1(C)OC(=O)Nc2ccc(-c3cccc(Cl)c3)cc21` (centres undefined) gave a melting point of 128 to 129 °C.

Regarding `CO[C@H](C)C(=O)N[C@H]1CC[C@H](CCN2CCN(c3nccc4c3CCO4)CC2)CC1`, the melting point came out at 159 °C.

Molecule `N#CC1(c2ccc(F)cc2)C2CC3CC(C2)CC1C3` (centres undefined) registered a melting point of 81 to 82 °C.

For `O=C(c1cc(Cl)ccc1Cl)N1CCNC1=Nc1ccc(Cl)cc1Cl`, the melting point is 205 to 206 °C.

For the molecule `O=C1N[C@H](Cc2ccc(C(F)(F)F)cc2)[C@H](c2ccoc2)O1` (racemic), the melting point is 111 to 112 °C.

In turn, `O=C(NCCO)c1cccc(-c2cccc3cc(Cc4ccc(OCC(F)(F)F)nc4)sc23)c1` had a melting point of 123 to 124 °C.

On to `CCOc1noc2c1CN(C(=O)OC)CCC2`, for which the melting point is 51.5 to 52 °C.

`COCOc1ccc(OCc2ccc(OCc3nc(-c4ccccc4)oc3C)cc2)c(CC#N)c1` gave a melting point of 123 to 124 °C.

The molecule `CCC(C(=O)OC1CC(=O)NC1=O)c1ccccc1` (centres undefined) displayed a melting point of 96.5 to 97.5 °C.

Molecule `CCONC(=O)Cc1ccc2cc(OC)ccc2c1` yielded a melting point of 196 to 197 °C.

For the molecule `CCOC(=O)c1ccccc1Sc1ccn(C(=O)N(CC)CC)n1`, the melting point is 65 to 67 °C.

`CC(CN1CCCC1)Oc1ccccc1CC(=O)N1CC2C(C1)C(c1ccccc1)(c1ccccc1)CCS2=O` (racemic) came in with a melting point of 126 °C.

Consider `S=c1n(CCc2ccccc2)ccn1C1CCc2ccccc2C1` (centres undefined), for which the melting point is 140 to 142 °C.

Regarding `C#CCSc1nc(=O)n(CC#C)cc1F`, the melting point came to 135 °C.

Regarding `CCOC(=O)CCN=c1sc2ccccc2s1`, the melting point was in the range of 61 to 62 °C.

Molecule `O=P(O)(O)C(F)P(=O)(O)O` showed a melting point of 162 to 163 °C.

Consider `Cc1nc2c(s1)-c1nc(Nc3ccc(Cl)nc3)ncc1CC2`, for which the melting point was in the range of 252 to 253 °C.

For the molecule `O=c1oc2cc(Cl)cnc2n1CO`, the melting point is 137 to 139 °C.

In turn, `COC(=O)[C@H](Cc1ccc(OS(=O)(=O)C(F)(F)F)cc1)NC(=O)OC(C)(C)C` had a melting point of 47 to 48 °C.

Take `COc1cc(OCCCN2CCc3cc(OC)c(OC)cc3C2)ccc1NC(=O)c1cccc2c(=O)c3cccc(C)c3[nH]c12`: the melting point is 183 to 184 °C.

Regarding `COc1ccc(C(=O)NC2CCCCC2)c2c1OCC2C(=O)OCc1ccccc1` (centres undefined), the melting point lay within 178 to 179 °C.

The molecule `O=C(O)c1cc(OCc2ccsc2)c(-c2ccccc2)c([N+](=O)[O-])c1` returned a melting point of 184 to 186 °C.

Turning to `O=C1CCCc2ccc([N+](=O)[O-])cc2N1`, the melting point was 224 to 226 °C.

`CCCc1nc2c(N)nc3cc(OCCOCc4ccccc4)ccc3c2s1` yielded a melting point of 142 to 145 °C.

Regarding `CCOC(=O)[C@H](C)NCC(=O)Nc1c2c(nc3ccccc13)CCCC2`, the melting point fell in the range of 101 to 102 °C.

Molecule `N#Cc1c(N2CCCCC2)cc(-c2ccccc2)c2c1Cc1ccccc1-2` registered a melting point of 140 to 141 °C.

Regarding `CCOC(=O)C1CCn2c(cc3ccccc32)C1OC(C)=O` (centres undefined), the melting point lay within 98 to 100 °C.

With `CN1CCC(c2n[nH]c3ccc(F)cc23)CC1`, the melting point fell in the range of 202 to 204 °C.

`Cc1cnc2[nH]cc(/C=C3\N=C(N4CCCCCC4)NC3=O)c2c1` gave a melting point of 324 to 326 °C.

For the molecule `Cc1c(-c2ccccc2)sc2nc(N3CCOCC3)[nH]c(=O)c12`, the melting point is 300 to 320 °C.
